Experimental data as given in patent publication US20230390228A1, “TREATMENT METHODS USING GHB” (Jazz Pharmaceuticals Ireland Limited, priority 2020, published 2023).

Key:
[1] = system: patients with fibromyalgia; test: Randomized, double-blind, placebo-controlled fibromyalgia study (Example 1), analysed by baseline slow wave sleep (Example 2); assay type: in vivo, human; conditions: for change from baseline in Fibromyalgia Impact Questionnaire (FIQ) / change from baseline in pain visual analog scale (PVAS): Xyrem 4.5 g or 6 g/night vs placebo, 8 weeks; for change from baseline in Fibromyalgia Impact Questionnaire (FIQ) / change from baseline in pain visual analog scale (PVAS) / response to oxybate (dose dependence): FIG. 1
Excerpt: This study was a randomized, double-blind, placebo-controlled, parallel group study in subjects diagnosed with fibromyalgia.
The ACR criteria included: presence of widespread pain for more than 3 months in all 4 quadrants of the body as well as along the spine and the elicitation of pain at 11 or more out of 18 anatomically defined tender points upon palpation with a force of 4 kg.
Subjects underwent screening assessments. Subjects who met the eligibility criteria underwent a drug withdrawal and washout period during which time pain medications and any treatment for fibromyalgia were gradually withdrawn. At the end of the 2-week baseline assessment period, subjects who continued to meet inclusion/exclusion criteria and who reported an average pain score above 4 (on a visual analog scale [VAS] of 0 to 10) during the last week of the baseline period were randomized to 1 of 3 treatment groups: Xyrem 4.5 g/night, Xyrem 6 g/night, or placebo (half of the subjects randomized to placebo received placebo matching 4.5 g and the other half received placebo matching 6 g).
Test Product, Dose, Mode of Administration, and Duration of Treatment: • Sodium oxybate 4.5 g, oral solution (9 mL) taken in 2 equally divided doses (4.5 mL added to 2 oz water) each night for 8 weeks. • Sodium oxybate 6 g, oral solution (12 mL) taken in 2 equally divided doses (6 mL added to 2 oz of water) each night for 8 weeks.
Reference Therapy, Dose and Mode of Administration: • Placebo (sodium citrate solution) 4.5 g, oral solution (9 mL) matching volume of Xyrem 4.5 g, taken in 2 equally divided doses (4.5 mL added to 2 oz water) each night. • Placebo (sodium citrate solution) 6 g, oral solution (12 mL) matching volume of Xyrem 6 g, taken in 2 equally divided doses (6 mL added to 2 oz water) each night.
The primary efficacy parameter was a binary composite parameter for the treatment of fibromyalgia syndrome. The proportion of subjects in each treatment group that met all 3 of the following response criteria was compared to assess the efficacy of Xyrem in response to fibromyalgia syndrome. • Pain Severity: as assessed by pain VAS data recorded 3 time a day by the subject in an electronic diary (eDiary). For pain VAS, a response was defined as a reduction in average pain of 20% or greater from baseline to Week 8. • Functionality (Fibromyalgia Impact Questionnaire [FIQ]): Change from baseline to a study visit was assessed. A response was defined as a reduction of 20% or greater in FIQ total score from baseline to Week 8. • Patient Global Impression of Change (PGIc): The subject's perception of the overall improvement in their fibromyalgia symptoms was assessed by means of the PGIc questionnaire completed at the end of study. A response to treatment was defined as a response of “Very much better” or “Much better” on the PGIc.
Severity of Pain: the mean change from baseline to a study visit in pain severity (VAS pain). The proportion of responders for pain, defined as the proportion of subjects who had at least 20% reduction in pain severity from baseline to a study visit.
Fibromyalgia Impact Questionnaire: The mean change from baseline to a study visit in FIQ total score and subscale scores. The proportion of FIQ responders, defined as the proportion of subjects who had at least a 20% reduction in FIQ total score from baseline to a study visit.
Subjective Assessments of Sleep and Fatigue: • Daytime Sleepiness: the mean change from baseline to a study visit in the Epworth Sleepiness Scale (ESS). • Sleep Patterns: the mean change from baseline to a study visit in the Jenkins Scale (JS). • Fatigue: the mean change from baseline to a study visit in the fatigue VAS score. • Functional Outcomes of Sleep Questionnaire (FOSQ): the mean changes from baseline to a study visit in FOSQ total score and subscale scores. […]

[2] = system: narcolepsy patients with cataplexy; conditions: cited from earlier work
[3] = molecular target: GABA-ketoglutarate transaminase (Homo sapiens, UniProt P80404); conditions: cited from earlier work
Chain of GABA-ketoglutarate transaminase (P80404 29-500): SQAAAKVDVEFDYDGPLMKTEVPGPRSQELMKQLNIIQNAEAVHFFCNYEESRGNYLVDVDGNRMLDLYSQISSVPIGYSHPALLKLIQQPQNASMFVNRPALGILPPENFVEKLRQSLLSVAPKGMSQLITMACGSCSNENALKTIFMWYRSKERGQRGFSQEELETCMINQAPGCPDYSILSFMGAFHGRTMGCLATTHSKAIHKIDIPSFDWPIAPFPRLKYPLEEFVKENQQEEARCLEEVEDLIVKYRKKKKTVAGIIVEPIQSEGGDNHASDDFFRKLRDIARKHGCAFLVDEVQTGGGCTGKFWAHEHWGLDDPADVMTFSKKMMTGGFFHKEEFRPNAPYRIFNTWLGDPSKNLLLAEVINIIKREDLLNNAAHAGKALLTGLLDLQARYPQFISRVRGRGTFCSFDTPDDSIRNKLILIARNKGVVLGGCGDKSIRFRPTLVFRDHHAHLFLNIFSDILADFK

brain = conditions: in vivo; cited from earlier work
narcolepsy = conditions: in vivo; cited from earlier work
[4] = patients with ≥20% slow wave sleep prior to treatment
[5] = patients with less than about 1% slow wave sleep at baseline or screening

Structure (SMILES): O=C(O)CCCO [sodium oxybate]
- change from baseline in Fibromyalgia Impact Questionnaire (FIQ) [1, 4]: did not differ significantly
- change from baseline in pain visual analog scale (PVAS) [1, 4]: did not differ significantly
- consolidation of REM sleep [2]: increased
- duration of slow wave sleep [2]: increased
- number of sleep arousals [2]: decreased

Structure (SMILES): O=C(O)CCCO [oxybate, Gamma-hydroxybutyrate]
- inhibition of GABA-ketoglutarate transaminase [3]: inhibition
- brain acetylcholine (brain): increases
- brain dopamine (brain): increases
- glucose utilization in the brain (brain): depression
- oxybate response (FIQ, Pain VAS, Fatigue VAS, TPC) ([1]; low baseline slow wave sleep (quartile 1), FIG. 3A-3D): improved oxybate response
- response to oxybate (dose dependence) [1, 5]: dose-dependent response
- change from baseline in Fibromyalgia Impact Questionnaire (FIQ) [1, 5]: significant improvements
- change from baseline in pain visual analog scale (PVAS) [1, 5]: significant improvements
- response to oxybate (dose dependence) [1, 4]: did not exhibit a dose-dependent response
- change in FIQ from baseline ([1]; slow wave sleep quartile 1 (<13.5 min stage 3/4 sleep at baseline), 4.5 g and 6.0 g Xyrem vs placebo, FIG. 3A): significant improvements
- change in Fatigue VAS from baseline ([1]; slow wave sleep quartile 1 (<13.5 min stage 3/4 sleep at baseline), 4.5 g and 6.0 g Xyrem vs placebo, FIG. 3C): significant improvements
- change in Tender Points Count (TPC) from baseline ([1]; slow wave sleep quartile 1 (<13.5 min stage 3/4 sleep at baseline), 4.5 g and 6.0 g Xyrem vs placebo, FIG. 3D): significant improvements
- REM latency (narcolepsy): decreases
- REM sleep (narcolepsy): increases
- signs and symptoms of narcolepsy (daytime sleepiness, cataplexy, sleep paralysis, hypnagogic hallucinations) (narcolepsy): substantially reduces
- sleep apnea (narcolepsy): reduces
- total sleep time (narcolepsy): increases
